According to ChEMBL document CHEMBL1147284, “Alkaloids from the Leaves of Prosopis juliflora” (J Nat Prod, 1989):
Active and inactive are the calls of the source.

Tests used:
Format in all cases: functional, organism-based
Pseudomonas aeruginosa = test: Antibacterial activity against Pseudomonas aeruginosa PAO1 HER 1018 after 24 hrs
Staphylococcus aureus = test: Antibacterial activity against Staphylococcus aureus B827 after 24 hrs
Shigella sonnei = test: Antibacterial activity against Shigella sonnei YER HER 1048 after 24 hrs
Escherichia coli [1] = test: Antibacterial activity against Escherichia coli 11303 HER 1024 after 24 hrs
Escherichia coli [2] = test: Antibacterial activity against Escherichia coli K125 HER 1037 after 24 hrs
Klebsiella pneumoniae = test: Antibacterial activity against Klebsiella pneumoniae C3 HER 1111 after 24 hrs

Measured: Activity

C[C@@H]1N[C@H](CCCCCCCCCCc2cc(CCCCCCCCC[C@@H]3CC[C@H](O)[C@H](C)N3)c[n+]3c2C=CC3)CC[C@@H]1O
active: all assays above
